Experimental findings from ChEMBL document CHEMBL1144270, “Carbonic anhydrase inhibitors. Interaction of isozymes I, II, IV, V, and IX with carboxylates” (Bioorg Med Chem Lett, 2005) are described below.

The target in assay [1] is Carbonic anhydrase 1 (Homo sapiens, UniProt P00915). Nature of the assay: Binding affinity against human cytosolic Carbonic anhydrase I (A = activator).
Assay [2] addresses Carbonic anhydrase 5A, mitochondrial (Homo sapiens, UniProt P35218). Briefly: Binding affinity against human cytosolic Carbonic anhydrase V.
In assay [3] the target is Carbonic anhydrase 2 (Homo sapiens, UniProt P00918). Briefly: Binding affinity against human cytosolic Carbonic anhydrase II.
The target of assay [4] is Carbonic anhydrase 4 (Homo sapiens, UniProt P22748). Nature of the assay: Binding affinity against human cytosolic Carbonic anhydrase IV.
Assay [5] concerns the target Carbonic anhydrase 9 (Homo sapiens, UniProt Q16790). Briefly: Binding affinity against human cytosolic Carbonic anhydrase IX.

SMILES strings stand for the structures.

Carbonic anhydrase 5A, mitochondrial, sequence (P35218 whole entry): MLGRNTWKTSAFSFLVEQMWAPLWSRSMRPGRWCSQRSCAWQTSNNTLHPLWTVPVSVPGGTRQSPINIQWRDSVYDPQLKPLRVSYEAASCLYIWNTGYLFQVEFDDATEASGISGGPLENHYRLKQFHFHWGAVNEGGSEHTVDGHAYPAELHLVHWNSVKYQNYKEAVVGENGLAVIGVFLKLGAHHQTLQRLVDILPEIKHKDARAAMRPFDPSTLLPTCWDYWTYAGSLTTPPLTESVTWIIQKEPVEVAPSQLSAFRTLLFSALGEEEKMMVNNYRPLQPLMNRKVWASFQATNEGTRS
Carbonic anhydrase 1, sequence (P00915 whole entry): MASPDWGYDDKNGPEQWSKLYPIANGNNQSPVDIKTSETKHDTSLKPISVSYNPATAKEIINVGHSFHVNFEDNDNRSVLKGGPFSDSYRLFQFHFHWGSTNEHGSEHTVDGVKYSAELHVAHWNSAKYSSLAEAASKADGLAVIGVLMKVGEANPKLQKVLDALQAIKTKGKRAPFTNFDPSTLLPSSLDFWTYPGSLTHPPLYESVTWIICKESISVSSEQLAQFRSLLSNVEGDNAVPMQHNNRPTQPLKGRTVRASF
Carbonic anhydrase 4, sequence (P22748 whole entry): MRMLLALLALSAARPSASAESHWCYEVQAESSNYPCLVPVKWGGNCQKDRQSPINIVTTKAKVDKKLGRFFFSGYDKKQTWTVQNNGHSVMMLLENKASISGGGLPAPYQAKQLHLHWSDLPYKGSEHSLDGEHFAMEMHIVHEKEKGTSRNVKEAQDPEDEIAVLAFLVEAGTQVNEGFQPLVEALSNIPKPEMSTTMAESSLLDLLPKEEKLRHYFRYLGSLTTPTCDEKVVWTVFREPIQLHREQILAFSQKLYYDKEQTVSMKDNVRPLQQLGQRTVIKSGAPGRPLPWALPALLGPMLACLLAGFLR

As for `CC(O)C(=O)[O-].[Na+]` (configuration not stated) [SODIUM LACTATE], the Ki (as a rule, a measure of affinity in units of concentration, obtained from inhibition or displacement) in assay [1] is “Activator”; in assay [2] it was 3370 µM; in assay [3] it was 3220 µM; in assay [4] it was 1530 µM; in assay [5], more than 150000 µM.

Consider `O=C([O-])C(=O)[O-].[Na+].[Na+]` [SODIUM OXALATE], for which the inhibition constant Ki result in assay [1] was “Activator”; in assay [2], 2230 µM; in assay [3] it was 990 µM; in assay [4], 0.099 µM; in assay [5], 3280 µM.

As for `O=C([O-])c1ccccc1.[Na+]` [SODIUM BENZOATE], the Ki result was “Activator” in assay [1]; 7010 µM in assay [2]; 30 µM in assay [3]; 74.7 µM in assay [4]; more than 150000 µM in assay [5].

In the case of `O=C[O-].[Na+]` [SODIUM FORMATE], the Ki entry in assay [1] is “Activator”; in assay [2] it was 9970 µM.

Regarding `O=C([O-])CC(O)(CC(=O)[O-])C(=O)[O-].[Na+].[Na+].[Na+]` [SODIUM CITRATE], the Ki entry was “Activator” in assay [1]; 1670 µM in assay [2]; 2160 µM in assay [3]; 0.099 µM in assay [4]; 4930 µM in assay [5].

`CC(=O)C(=O)[O-].[Na+]` [PYRUVATE SODIUM]: the Ki entry in assay [1] is “Activator”; in assay [2] it was 5500 µM; in assay [3], 2110 µM; in assay [4], 14.5 µM; in assay [5] it was 1120 µM.

Consider `O=C([O-])CC(=O)[O-].[Na+].[Na+]` [DISODIUM MALONATE], for which the Ki result was “Activator” in assay [1]; 6000 µM in assay [2]; 1620 µM in assay [3]; 2.8 µM in assay [4]; 1270 µM in assay [5].

For the molecule `O=C(O)C[C@H](O)C(=O)O` [E350], the Ki entry in assay [1] is “Activator”; in assay [2] it was 2490 µM; in assay [3] it was 1870 µM; in assay [4], 53.7 µM; in assay [5], 7420 µM.

In turn, `O=C([O-])O.[Na+]` [SODIUM BICARBONATE] gave an inhibition constant Ki in assay [2] of 82000 µM.

As for `CC(=O)[O-].[Na+]` [SODIUM ACETATE], the Ki entry in assay [1] was “Activator”; in assay [2], 25900 µM; in assay [3], 130 µM; in assay [4], 550 µM; in assay [5], more than 150000 µM.

As for `O=C(O)c1c(F)c(F)cc(F)c1F`, the Ki came out at 1620 µM in assay [2], 6 µM in assay [3], 74.5 µM in assay [4] and 770 µM in assay [5].
